Measured values published in patent publication US20230143604A1, “QW DOSING OF GIP RECEPTOR AGONIST PEPTIDE COMPOUNDS AND USES THEREOF” (TAKEDA PHARMACEUTICAL COMPANY LIMITED, priority 2020, published 2023).
Starred links: 1 amine or outer side, 2 acyl side, 3 side chain; linkers in the order of their positions; H or OH if unused. Non-standard residues stand in square brackets, D forms with d. Residues, ends and D or L forms follow the SMILES beside them. Groups on a side chain read outwards from the residue. *: point of attachment. C20 diacid = O=C(O)CCCCCCCCCCCCCCCCCCC(=O)*; C18 diacid = O=C(O)CCCCCCCCCCCCCCCCC(=O)*; γGlu = O=C(O)[C@H](CCC(=O)[*:2])N[*:1]; NMeY = CN[C@@H](Cc1ccc(O)cc1)C(=O)O; AEEA = NCCOCCOCC(=O)O; Aib = CC(C)(N)C(=O)O

Assay: physchem
Outline: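 Solubility at pH 7.4 determined by stepwise addition of 200 mM phosphate buffer in 100 μL increments to 3 mg peptide, mixing briefly each time, until no insoluble material remained, then measured by liquid chromatography.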

CC[C@H](C)[C@H](NC(=O)[C@H](Cc1ccccc1)NC(=O)[C@@H](NC(=O)CNC(=O)[C@H](CCC(=O)O)NC(=O)C(C)(C)NC(=O)[C@@H](N)Cc1ccc(O)cc1)[C@@H](C)O)C(=O)N[C@@H](CO)C(=O)N[C@@H](CC(=O)O)C(=O)N[C@@H](Cc1ccc(O)cc1)C(=O)N[C@@H](CO)C(=O)N[C@H](C(=O)NC(C)(C)C(=O)N[C@@H](CC(C)C)C(=O)N[C@@H](CC(=O)O)C(=O)N[C@@H](CCCNC(=N)N)C(=O)NC(C)(C)C(=O)N[C@@H](C)C(=O)N[C@@H](CCC(N)=O)C(=O)NC(C)(C)C(=O)N[C@@H](CCCCNC(=O)COCCOCCNC(=O)COCCOCCNC(=O)CC[C@H](NC(=O)CC[C@H](NC(=O)CCCCCCCCCCCCCCCCC(=O)O)C(=O)O)C(=O)O)C(=O)N[C@@H](Cc1ccccc1)C(=O)N[C@H](C(=O)N[C@@H](CC(N)=O)C(=O)N[C@@H](Cc1c[nH]c2ccccc12)C(=O)N[C@@H](CC(C)C)C(=O)N[C@@H](CC(C)C)C(=O)N[C@@H](C)C(=O)N[C@@H](CCC(N)=O)C(=O)N[C@@H](CCCNC(=N)N)C(=O)NCC(=O)O)C(C)C)[C@@H](C)CC [Compound 141] (H-Y[Aib]EGTFISDYSI[Aib]LDR[Aib]AQ[Aib]K([AEEA-AEEA-γGlu-γGlu-C18 diacid])FVNWLLAQRG-OH) gave a solubility (pH 7.4) of no less than 15 mg/mL and a solubility (pH 7.4, aqueous buffer) of no less than 30 mg/mL.
With CC[C@H](C)[C@H](NC(=O)[C@H](Cc1ccccc1)NC(=O)[C@@H](NC(=O)CNC(=O)[C@H](CCC(=O)O)NC(=O)C(C)(C)NC(=O)[C@H](Cc1ccc(O)cc1)NC)[C@@H](C)O)C(=O)N[C@@H](CO)C(=O)N[C@@H](CC(=O)O)C(=O)N[C@@H](Cc1ccc(O)cc1)C(=O)N[C@@H](CO)C(=O)N[C@H](C(=O)NC(C)(C)C(=O)N[C@@H](CC(C)C)C(=O)N[C@@H](CC(=O)O)C(=O)N[C@@H](CCCNC(=N)N)C(=O)NC(C)(C)C(=O)N[C@@H](C)C(=O)N[C@@H](CCC(N)=O)C(=O)NC(C)(C)C(=O)N[C@@H](CCCCNC(=O)COCCOCCNC(=O)COCCOCCNC(=O)CC[C@H](NC(=O)CC[C@H](NC(=O)CCCCCCCCCCCCCCCCCCC(=O)O)C(=O)O)C(=O)O)C(=O)N[C@@H](Cc1ccccc1)C(=O)N[C@H](C(=O)N[C@@H](CC(N)=O)C(=O)N[C@@H](Cc1c[nH]c2ccccc12)C(=O)N[C@@H](CC(C)C)C(=O)N[C@@H](CC(C)C)C(=O)N[C@@H](C)C(=O)N[C@@H](CCC(N)=O)C(=O)N[C@@H](CCCNC(=N)N)C(=O)NCC(=O)O)C(C)C)[C@@H](C)CC [Compound 159] (H-[NMeY][Aib]EGTFISDYSI[Aib]LDR[Aib]AQ[Aib]K([AEEA-AEEA-γGlu-γGlu-C20 diacid])FVNWLLAQRG-OH) the solubility (pH 7.4) was no less than 15 mg/mL and the solubility (pH 7.4, aqueous buffer) was no less than 30 mg/mL.
CC[C@H](C)[C@H](NC(=O)[C@H](CCCNC(=N)N)NC(=O)[C@H](CC(=O)O)NC(=O)[C@H](CC(C)C)NC(=O)[C@H](C)NC(=O)[C@@H](NC(=O)[C@H](CO)NC(=O)[C@H](Cc1ccc(O)cc1)NC(=O)[C@H](CC(=O)O)NC(=O)[C@H](CO)NC(=O)[C@@H](NC(=O)[C@H](Cc1ccccc1)NC(=O)[C@@H](NC(=O)CNC(=O)[C@H](CCC(=O)O)NC(=O)C(C)(C)NC(=O)[C@H](Cc1ccc(O)cc1)NC)[C@@H](C)O)[C@@H](C)CC)[C@@H](C)CC)C(=O)N[C@@H](C)C(=O)N[C@@H](CCC(N)=O)C(=O)N[C@@H](CCC(N)=O)C(=O)N[C@@H](CCCCNC(=O)COCCOCCNC(=O)COCCOCCNC(=O)CC[C@H](NC(=O)CC[C@H](NC(=O)CCCCCCCCCCCCCCCCC(=O)O)C(=O)O)C(=O)O)C(=O)N[C@@H](Cc1ccccc1)C(=O)N[C@H](C(=O)N[C@@H](CC(N)=O)C(=O)N[C@@H](Cc1c[nH]c2ccccc12)C(=O)N[C@@H](CC(C)C)C(=O)N[C@@H](CC(C)C)C(=O)N[C@@H](C)C(=O)N[C@@H](CCC(N)=O)C(=O)N[C@@H](CCCNC(=N)N)C(=O)NCC(=O)O)C(C)C [Compound 286] (H-[NMeY][Aib]EGTFISDYSIALDRIAQQK([AEEA-AEEA-γGlu-γGlu-C18 diacid])FVNWLLAQRG-OH) gave a solubility (pH 7.4, aqueous buffer) of less than 6 mg/mL.
